COc1c(NS(=O)(=O)c2ccc(F)cc2)cc(-c2ccc3ncnc(N4CCOCC4)c3c2)cc1C(N)=O
solubility (mole fraction)
Details	288.15 K	293.15 K	298.15 K	303.15 K	308.15 K	313.15 K	318.15 K	323.15 K	328.15 K
in acetone	0.000317	0.000317	0.000352	0.000419	0.000459	0.000526	0.000592	–	–
in chloroform	0.000145	0.000158	0.000165	0.000188	0.000223	0.000258	0.000303	0.00039	0.000495
in ethyl acetate	9.51e-05	0.000101	0.000114	0.000128	0.00015	0.000171	0.000196	0.00022	0.000239
in methanol	0.000238	0.000301	0.00043	0.000428	0.000613	0.00078	0.00102	0.00105	0.00125
in toluene	1.05e-05	1.05e-05	1.05e-05	1.13e-05	1.31e-05	1.53e-05	1.67e-05	1.83e-05	2.14e-05
in water	5.21e-07	8.05e-07	9.14e-07	1.05e-06	1.16e-06	1.37e-06	1.5e-06	1.98e-06	2.44e-06

COc1c(NS(=O)(=O)c2ccc(F)cc2)cc(-c2ccc3nccc(N4CCOCC4)c3c2)cc1C(N)=O
solubility (mole fraction)
Details	288.15 K	293.15 K	298.15 K	303.15 K	308.15 K	313.15 K	318.15 K	323.15 K	328.15 K
in acetone	0.000608	0.000638	0.000704	0.000817	0.000941	0.00102	0.00115	–	–
in chloroform	5.21e-05	5.44e-05	5.86e-05	6.66e-05	7.72e-05	9.58e-05	0.000121	0.000149	0.000188
in ethyl acetate	9.85e-05	0.000115	0.000127	0.000138	0.00016	0.000182	0.000187	0.000183	0.000183
in methanol	0.000259	0.000298	0.000338	0.000398	0.000473	0.000518	0.000666	0.000829	0.000977
in toluene	5.82e-06	6.02e-06	6.59e-06	7.29e-06	7.86e-06	9.04e-06	1.03e-05	1.23e-05	1.4e-05
in water	3.54e-07	5.68e-07	7.36e-07	8.18e-07	9.22e-07	1.08e-06	1.28e-06	1.47e-06	1.75e-06

COc1c(NS(=O)(=O)c2ccc(C)cc2)cc(-c2ccc3ncnc(N4CCOCC4)c3c2)cc1C(N)=O
solubility (mole fraction)
Details	288.15 K	293.15 K	298.15 K	303.15 K	308.15 K	313.15 K	318.15 K	323.15 K	328.15 K
in acetone	0.000635	0.000707	0.000798	0.001	0.00115	0.00141	0.00185	–	–
in chloroform	0.0027	0.00314	0.00346	0.00398	0.00466	0.00547	0.00637	0.00717	0.00767
in ethyl acetate	0.000286	0.000294	0.000302	0.000329	0.000357	0.000412	0.00045	0.000535	0.000656
in methanol	0.000832	0.000873	0.000919	0.00105	0.00123	0.00151	0.00183	0.00217	0.00267
in toluene	2.41e-05	2.9e-05	3.32e-05	3.98e-05	4.9e-05	5.89e-05	7.91e-05	0.000104	0.00013
in water	8.31e-07	1.19e-06	1.62e-06	2.07e-06	2.53e-06	2.91e-06	3.2e-06	3.47e-06	3.75e-06

Source: BigSolDB 2.1
